Assay results: patent publication US11464783B2, “Heterocyclic compounds” (Aligos Therapeutics, Inc., priority 2019, dated 2022)

Each compound was assayed on HBV (assay: HBV-DNA Antiviral Assay Using HepG2.2.15 Cells). Conditions: Hepatitis B virus, HepG2.2.15, 168 h, extracellular HBV DNA by qPCR, day 7.
Type: cell-based
Procedure: The following assay procedure describes the HBV antiviral assay. This assay uses HepG2.2.15 cells, which have been transfected with HBV genome, and extracellular HBV DNA quantification as endpoint. Cell viability is assessed in parallel by measuring the intracellular ATP content using the CellTiter-Glo® reagent from Promega.
On day 0, HepG2.2.15 cells were seeded in 96-well plates at a density of 6.0×10^4 cells/well (0.1 mL/well). The cells were incubated at 37° C. and 5% CO2.
On day 1, the test articles were diluted and added to cell culture wells (8 concentrations, 4-fold dilution, in duplicate). GLS4, Tenofovir and Sorafenib were used as reference compounds. 100 μL of culture medium containing the compounds was added to the plate, and the final total volume per well was 200 μL. The final concentration of DMSO in the culture medium was 0.5%. The plate map of compound treatment is shown below. The cells were cultured at 37° C. and 5% CO2 for 3 days.
On day 4, the plates were refreshed with culture media with compounds.
On day 7, cell viability was assessed using the CellTiter-Glo®, and the cell culture supernatants were collected for determination of HBV DNA by qPCR.
Extracellular DNA was isolated with QIAamp 96 DNA Blood Kit per the manufacturer's manual. HBV DNA was then quantified by qPCR with HBV specific primers and probes as specified in Table 1 using the FastStart Universal MasterMix from Roche on an ABI-7900HT. The PCR cycle program consisted of 95° C. for 10 min, followed by 40 cycles at 95° C. for 15 sec and 60° C. for 1 min.
A DNA standard was prepared by dilution of the pAAV2 HBV1.3 plasmid with concentrations ranging from 10 to 1×10^7 copies/uL and used to generate a standard curve by plotting Ct value vs. the concentration of the HBV plasmid DNA standard. The quantity of HBV DNA in each sample was determined by interpolating from the standard curve.
Cell viability was calculated as follows: % Cell viability=(luminescence value of test sample−average luminescence value of blank)/(average luminescence value of 0.5% DMSO control−average luminescence of blank)×100%. HBV DNA inhibition was calculated as follows: 100-(HBV DNA copy number of test sample−HBV DNA copy number of ETV)/HBV DNA copy number of 0.5% DMSO control−HBV DNA copy number of ETV)×100%. The CC50, EC50 and EC90 values were determined by dose-response curves fitted by GraphPad Prism using “log (agonist) vs. response-Variable slope”.
Compound `O=C(c1ccc(Br)c(Cl)c1)N1CCS(=O)(=O)C(c2cccs2)C1` (stereo not shown) [Compound 6a, (4-bromo-3-chloro-phenyl)-[1,1-dioxo-2-(2-thienyl)-1,4-thiazinan-4-yl]methanone] has an EC50 of at most 100 nM. In the case of `O=C(c1ccc(Cl)cc1Cl)N1CCS(=O)(=O)C(c2cccs2)C1` (stereo not shown) [Compound 11a, (2,4-dichlorophenyl)-[1,1-dioxo-2-(2-thienyl)-1,4-thiazinan-4-yl]methanone], the EC50 is reported as 500 to 5000 nM. For `O=C(c1ccc(Cl)cc1F)N1CCS(=O)(=O)C(c2cccs2)C1` (stereo not shown) [Compound 10a, (4-chloro-2-fluoro-phenyl)-[1,1-dioxo-2-(2-thienyl)-1,4-thiazinan-4-yl]methanone], the EC50 was over 5000 nM. `C[C@H]1CS(=O)(=O)[C@H](c2cccs2)CN1C(=O)c1ccc(Br)c(Cl)c1` [Compound 24, (4-bromo-3-chloro-phenyl)-[(2S,5S)-5-methyl-1,1-dioxo-2-(2-thienyl)-1,4-thiazinan-4-yl]methanone] was tested, and the EC50 was 100 to 500 nM. Work on `O=C(c1cccc(Cl)c1F)N1CCS(=O)(=O)C(c2cccs2)C1` (stereo not shown) [Compound 14a, (3-chloro-2-fluoro-phenyl)-[1,1-dioxo-2-(2-thienyl)-1,4-thiazinan-4-yl]methanone] yielded an EC50 of over 5000 nM. Compound `C[C@@H]1CS(=O)(=O)[C@@H](c2cccs2)CN1C(=O)Nc1ccc(F)c(Cl)c1` [Compound 22, (2R,5R)-N-(3-chloro-4-fluoro-phenyl)-5-methyl-1,1-dioxo-2-(2-thienyl)-1,4-thiazinane-4-carboxamide] has an EC50 of over 5000 nM.

Same assay, conditions: extracellular HBV DNA by qPCR, day 7
In the case of `O=C(c1ccc(Cl)c(Cl)c1)N1CCS(=O)(=O)C(c2cccs2)C1` (single isomer, unassigned) [Compound 8b, (3,4-dichlorophenyl)-[1,1-dioxo-2-(2-thienyl)-1,4-thiazinan-4-yl]methanone], the EC50 is reported as 100 to 500 nM. In the case of `Cn1cnc(-c2ccc(C3CN(C(=O)c4ccc(Br)c(Cl)c4)CCS3(=O)=O)s2)c1` (single isomer, unassigned) [Compound 16b, (4-bromo-3-chloro-phenyl)-[2-[5-(1-methylimidazol-4-yl)-2-thienyl]-1,1-dioxo-1,4-thiazinan-4-yl]methanone], the EC50 is reported as 500 to 5000 nM. Compound `Cn1cnc(-c2ccc(C3CN(C(=O)c4ccc(Br)c(Cl)c4)CCS3(=O)=O)s2)c1` (single isomer, unassigned) [Compound 16a, (4-bromo-3-chloro-phenyl)-[2-[5-(1-methylimidazol-4-yl)-2-thienyl]-1,1-dioxo-1,4-thiazinan-4-yl]methanone] has an EC50 of 100 to 500 nM. Work on `Cc1cc(C(=O)N2CCS(=O)(=O)C(c3cccs3)C2)ccc1Cl` (single isomer, unassigned) [Compound 9b, (4-chloro-3-methyl-phenyl)-[1,1-dioxo-2-(2-thienyl)-1,4-thiazinan-4-yl]methanone] yielded an EC50 of 100 to 500 nM. `O=C(c1ccc(Cl)c(Cl)c1)N1CCS(=O)(=O)C(c2cccs2)C1` (single isomer, unassigned) [Compound 8a, (3,4-dichlorophenyl)-[1,1-dioxo-2-(2-thienyl)-1,4-thiazinan-4-yl]methanone] gave an EC50 of 500 to 5000 nM. Work on `Cc1cc(C(=O)N2CCS(=O)(=O)C(c3cccs3)C2)ccc1Cl` (single isomer, unassigned) [Compound 9a, (4-chloro-3-methyl-phenyl)-[1,1-dioxo-2-(2-thienyl)-1,4-thiazinan-4-yl]methanone] yielded an EC50 of 500 to 5000 nM. In the case of `O=C(c1ccc(Br)c(Cl)c1)N1CCS(=O)(=O)C(c2cccs2)C1` (stereo not shown) [Compound 6b, (4-bromo-3-chloro-phenyl)-[1,1-dioxo-2-(2-thienyl)-1,4-thiazinan-4-yl]methanone], the EC50 is reported as 100 to 500 nM.
